This is an account of results in article PMC2815200 (Biochemical pharmacology, 2009).

One test concerns the target T1, human A3AR (Homo sapiens, UniProt P0DMS8).
T1 sequence (P0DMS8 1-318): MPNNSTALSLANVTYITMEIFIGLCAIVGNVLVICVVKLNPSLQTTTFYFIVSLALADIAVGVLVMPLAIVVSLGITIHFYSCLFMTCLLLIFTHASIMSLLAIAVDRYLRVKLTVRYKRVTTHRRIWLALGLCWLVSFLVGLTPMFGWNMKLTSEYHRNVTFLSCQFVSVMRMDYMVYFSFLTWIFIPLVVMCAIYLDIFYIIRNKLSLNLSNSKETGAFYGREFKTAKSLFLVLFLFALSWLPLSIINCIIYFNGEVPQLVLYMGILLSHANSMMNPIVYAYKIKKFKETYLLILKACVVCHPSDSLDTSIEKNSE
The class given is binding. The note with it: [^125I]MRS5127 0.2 nM, 2 h room temperature, Cheng-Prusoff.

The next test addresses T2, rabbit A3AR (Oryctolagus cuniculus, UniProt O02667).
T2 sequence (O02667 1-319): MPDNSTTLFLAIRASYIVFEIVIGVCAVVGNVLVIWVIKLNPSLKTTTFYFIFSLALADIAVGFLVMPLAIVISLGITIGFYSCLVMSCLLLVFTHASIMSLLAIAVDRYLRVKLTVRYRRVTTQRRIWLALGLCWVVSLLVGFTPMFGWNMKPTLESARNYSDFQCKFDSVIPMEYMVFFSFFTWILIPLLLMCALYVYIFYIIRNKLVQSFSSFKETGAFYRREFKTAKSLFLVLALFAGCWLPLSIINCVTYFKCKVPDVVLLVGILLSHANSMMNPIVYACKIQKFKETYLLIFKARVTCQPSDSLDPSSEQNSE
As to the kind of experiment: cAMP accumulation assay, HEK 293 cells expressing rabbit A3AR. The class given is cell-based. The conditions noted are these: forskolin 10 μM, 15 min, Ro 20-1724 20 μM.

In the next test the target is hA3. The note with it: read-out: affinity; hA3 ref 25, 26; cited from earlier work.
The target of the next test is T3, dog A3AR (Canis lupus familiaris, UniProt Q28309).
T3 sequence (Q28309 1-314): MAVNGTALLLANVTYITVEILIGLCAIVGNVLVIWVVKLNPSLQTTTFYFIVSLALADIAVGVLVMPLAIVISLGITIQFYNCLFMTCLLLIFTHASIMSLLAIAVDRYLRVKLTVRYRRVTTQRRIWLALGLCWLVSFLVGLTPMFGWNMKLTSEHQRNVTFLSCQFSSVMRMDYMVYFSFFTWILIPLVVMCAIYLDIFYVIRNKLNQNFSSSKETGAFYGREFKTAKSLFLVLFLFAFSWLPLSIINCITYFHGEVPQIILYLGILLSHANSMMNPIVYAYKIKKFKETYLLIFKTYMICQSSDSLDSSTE
In words: cAMP accumulation assay, HEK 293 cells expressing dog A3AR. The class given is cell-based. The note with it: forskolin 10 μM, 15 min, Ro 20-1724 20 μM. For orientation: Cyclic AMP is a second messenger, typically raised through Gs and lowered through Gi signalling.

The next test concerns the target T4, mA1AR (Mus musculus, UniProt Q60612).
T4 sequence (Q60612 1-326): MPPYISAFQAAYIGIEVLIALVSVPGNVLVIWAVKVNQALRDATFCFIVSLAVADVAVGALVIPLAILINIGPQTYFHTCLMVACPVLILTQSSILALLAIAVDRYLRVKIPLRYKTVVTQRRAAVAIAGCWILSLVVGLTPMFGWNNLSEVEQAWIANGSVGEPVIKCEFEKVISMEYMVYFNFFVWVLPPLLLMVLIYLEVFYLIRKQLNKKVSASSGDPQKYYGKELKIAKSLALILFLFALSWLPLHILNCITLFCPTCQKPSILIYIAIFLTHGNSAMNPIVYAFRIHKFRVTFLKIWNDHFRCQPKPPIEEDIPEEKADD
As to the kind of experiment: Competition binding of MRS5127 at mouse A1AR.

The next test addresses mouse A2AAR (Mus musculus, UniProt Q60613). In words: Competition binding of MRS5127 at mouse A2AAR. The note with it: [^3H]CGS21680 10 nM, HEK 293 membranes.
The target of the next test is T5, mouse A2BAR (Mus musculus, UniProt Q60614).
T5 sequence (Q60614 1-332): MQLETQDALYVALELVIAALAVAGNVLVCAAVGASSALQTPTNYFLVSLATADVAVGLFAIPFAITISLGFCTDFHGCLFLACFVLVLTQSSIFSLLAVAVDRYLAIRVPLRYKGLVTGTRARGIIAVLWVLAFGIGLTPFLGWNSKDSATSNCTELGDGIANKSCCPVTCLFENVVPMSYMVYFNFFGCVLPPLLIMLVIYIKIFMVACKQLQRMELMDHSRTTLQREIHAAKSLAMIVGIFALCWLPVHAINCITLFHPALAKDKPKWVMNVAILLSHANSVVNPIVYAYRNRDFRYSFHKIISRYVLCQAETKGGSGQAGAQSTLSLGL
As to the kind of experiment: Competition binding of MRS5127 at mouse A2BAR. The note with it: [^3H]MRS1754 2 nM, HEK 293 membranes.

Test [1] relates to hA3AR. The conditions noted are these: cited from earlier work.
The target in a further test is T6, mouse A3AR (Mus musculus, UniProt Q61618).
T6 sequence (Q61618 1-319): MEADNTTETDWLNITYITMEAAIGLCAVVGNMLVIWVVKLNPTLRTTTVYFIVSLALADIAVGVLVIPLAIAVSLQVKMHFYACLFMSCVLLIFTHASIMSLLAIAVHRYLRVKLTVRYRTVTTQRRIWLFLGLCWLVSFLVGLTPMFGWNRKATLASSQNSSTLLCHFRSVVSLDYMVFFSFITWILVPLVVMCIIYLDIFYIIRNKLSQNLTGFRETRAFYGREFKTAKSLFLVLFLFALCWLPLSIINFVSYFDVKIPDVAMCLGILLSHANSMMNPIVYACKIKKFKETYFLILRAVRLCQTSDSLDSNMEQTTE
As to the kind of experiment: cAMP accumulation assay, HEK 293 cells expressing mouse A3AR. It is filed as cell-based. The conditions noted are these: forskolin 10 μM, 15 min, Ro 20-1724 20 μM.

In test [2] the test system is hA3AR. The conditions noted are these: CHO cell membranes expressing hA3AR ref 25; cited from earlier work.

Chain of mouse A2AAR (Q60613 whole entry): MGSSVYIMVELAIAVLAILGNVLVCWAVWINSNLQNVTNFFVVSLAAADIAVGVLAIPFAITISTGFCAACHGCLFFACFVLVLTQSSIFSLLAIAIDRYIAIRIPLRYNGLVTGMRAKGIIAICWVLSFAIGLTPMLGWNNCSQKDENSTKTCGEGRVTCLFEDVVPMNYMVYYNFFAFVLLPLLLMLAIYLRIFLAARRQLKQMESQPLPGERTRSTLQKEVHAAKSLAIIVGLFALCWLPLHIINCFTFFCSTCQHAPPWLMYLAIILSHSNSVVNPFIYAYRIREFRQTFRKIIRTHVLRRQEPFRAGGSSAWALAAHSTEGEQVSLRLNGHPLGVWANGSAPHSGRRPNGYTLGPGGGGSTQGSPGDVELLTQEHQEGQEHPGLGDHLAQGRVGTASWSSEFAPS

Compound `CCCOC(=O)c1c(-c2ccccc2)nc(CC)c(C(=O)SCC)c1CCC` [MRS1523, 5-propyl-2-ethyl-4-propyl-3-(ethylsulfanylcarbonyl)-6-phenylpyridine-5-carboxylate] yielded a Ki on human A3AR of 246 ± 66 nM.
What is called EC50 is the concentration at which the effect is half-maximal. Higher therefore signals a less potent agent. Take `O[C@@H]1[C@H](O)[C@@H]2C[C@@H]2[C@H]1n1cnc2c(NCc3cccc(I)c3)nc(Cl)nc21` [MRS5127, (1′R,2′R,3′S,4′R,5′S)-4′-[2-chloro-6-(3-iodobenzylamino)-purine]-2′,3′-O-dihydroxybicyclo-[3.1.0]hexane]: the EC50 was 1.53 ± 0.59 nM at rabbit A3AR, 2.79 ± 0.41 nM at dog A3AR and 1.34 ± 0.07 nM on mouse A3AR. Besides, the Ki on hA3 is 1.44 ± 0.6 nM; at mA1AR (read-out: affinity (Ki value), [^125I]I-AB-MECA 0.3 nM, HEK 293 membranes), 140 ± 26 nM. The “affinity for mA1AR lower compared to the mA3AR” value at mA1AR (mA1AR versus mA3AR) is on record as ~ 30 fold. Further, the “binding to mouse A2AAR” value at mouse A2AAR is given as “did not bind”. Further, the “binding to mouse A2BAR” value at mouse A2BAR is reported as “did not bind”. For the same compound, the “efficacy in comparison to NECA” value in the test on hA3AR [1] (cAMP accumulation, human receptors ref 26) is reported as “roughly half efficacy”. The “efficacy compared to the full agonist NECA” value in the test on hA3AR [1] (cAMP, transfected cells ref 26) is 45%. Further, the “functional character by Schild analysis of [^35S]GTPγS binding” value with hA3AR [2] is listed as “antagonist”.
